US20080226571A1, “Compositions and methods to effect enhanced photoprotection against UV A and UV B induced damage of human skin” (priority 2007, published 2008)
Marks after values point to notes of the source that are not given here.

Columns and labels:
Assay type in all cases: cell-based
[1] = system: HaCaT human keratinocyte cell line; experiment: UV B protection of HaCaT keratinocytes, oral application model (Protocol II)
Protocol: (§1) The protocol is based on evaluating the reduction in photo damage caused by UV A and UV B in HaCaT human keratinocyte cell line. The cell viability is measured by Sulphorhodamine B assay (SRB assay) after exposure to UV rays. The percentage of UV protection is calculated based on the number of viable cells in the control (untreated) and test HaCaT human keratinocytes (treated with the labdane-diterpenoids based composition of the present invention) after UV exposure. The photoprotection assays to screen compounds for their UV protection efficacy during topical and oral applications as discussed in J Am Acad Dermatol 2003; 49: 458-472 is adopted as a reference.
(§2) Protocol II—Screening compounds suited for oral applications for UV protection efficacy 0.5×10^4 HaCaT human keratinocyte cells/well are counted and seeded into a 96 well micro titer plates. The cells are incubated at 37° C. in 5% CO2 for 24 hours. The growth medium is then removed and replaced with medium containing varying concentrations of the labdane-diterpenoids based composition of the present invention. The cells are then incubated for 24 hours to be followed by UV treatment. The UV treated cells are further incubated for 48 hours after which, cell viability is determined using the SRB or neutral red uptake assays.
(§3) The UV A exposure in both the protocols involves three UV A bulbs providing 108 watts of power. The plates are exposed for 1 hour at a distance of 5 cm from the source of light. The UV B exposure in both the protocols involves three UV B bulbs which provide 100 μwatt/cm^2 or 0.14 J/cm^2 irradiation dose. The plates are exposed for 7 minutes at a distance of 30 cm from the source of light.

[2] = system: HaCaT human keratinocyte cell line; experiment: UV B protection of HaCaT keratinocytes, topical application model (Protocol I, SRB viability); conditions: for % UV B protection as compared to control: Table B, Topical model; for UV protection UV B: summary in words, Table I, HaCaT, topical and oral protocols not separated
Protocol: as §1
(§4) Protocol I—Screening compounds suited for topical applications for UV protection efficacy 0.5×10^4 HaCaT human keratinocyte cells/well are counted and seeded into a 96 well micro titer plates. The cells are incubated at 37° C. in 5% CO2 for 24 hours. The growth medium is then removed and replaced with medium containing varying concentrations of the labdane-diterpenoids based composition of the present invention. The cells are immediately exposed to ultraviolet irradiation and further incubated for 72 hours. After 72 hours, the cell viability is determined by SRB assay.
as §3

[3] = system: HaCaT human keratinocyte cell line; experiment: UV A protection of HaCaT keratinocytes, oral application model (Protocol II)
Protocol: as §1, §2, §3

[4] = system: HaCaT human keratinocyte cell line; experiment: UV A protection of HaCaT keratinocytes, topical application model (Protocol I, SRB viability); conditions: for % UV A protection: Topical model; for UV protection UV A: summary in words, Table I, HaCaT, topical and oral protocols not separated
Protocol: as §1, §4, §3

[5] = system: B16F1 mouse melanoma cells; experiment: Intracellular melanin enhancement; conditions: for melanin enhancement activity, comparison in words: Tables C and E; for dose levels still tolerated and effective, relative to the maximum tolerated dose levels of active III: mouse; for Melanin enhancement: summary in words, Table I
Protocol: B16F1 mouse melanoma cells are treated with varying concentrations of actives I, II and III and other optional actives or combinations thereof at a time interval of 3 days for nine consecutive days. The intracellular melanin in both the controls and test B16F1 mouse melanoma cells is extracted by 1 N NaOH and subjected to a heat treatment at 100° C. The extracted melanin is estimated at 405 nm in a Fluostar Optima Microplate Reader.

cells of the skin = experiment: Relative cytotoxicity (summary Table I); conditions: summary in words

Structure (SMILES) | % UV B protection ([1]; 0.25 μg/ml) | % UV B protection ([1]; 0.5 μg/ml) | % UV B protection ([1]; 1 μg/ml) | % UV B protection ([1]; 2 μg/ml) | % UV B protection ([1]; 3 μg/ml) | % UV B protection ([1]; 5 μg/ml) | % UV B protection ([1]; 12 μg/ml) | % UV B protection as compared to control ([2]; 0.25 μg/ml) | % UV B protection as compared to control ([2]; 0.5 μg/ml) | % UV B protection as compared to control ([2]; 1 μg/ml) | % UV B protection as compared to control ([2]; 2 μg/ml) | % UV B protection as compared to control ([2]; 3 μg/ml) | % UV B protection as compared to control ([2]; 5 μg/ml) | % UV B protection as compared to control ([2]; 12 μg/ml) | UV protection UV B [2] | % UV A protection ([3]; 0.25 μg/ml) | % UV A protection ([3]; 0.5 μg/ml) | % UV A protection ([3]; 1 μg/ml) | % UV A protection ([3]; 2 μg/ml) | % UV A protection ([3]; 3 μg/ml) | other results
C=C[C@@]1(C)CC(=O)[C@]2(O)[C@@]3(C)[C@@H](O)CCC(C)(C)[C@@H]3[C@H](O)[C@H](O)[C@@]2(C)O1 [Active I, 8,13-epoxy-1α,6β,7β,9α-tetrahydroxylabd-14-en-11-one] | 15* % | 35* % | 65* % | 80* % | 91* % | 97* % | 98* % | 10% | 13% | 20* % | 35* % | 45* % | 50* % | 55* % | Significant | 24* % | 29* % | 58* % | 82* % | 98* % | % UV A protection ([3]; 5 μg/ml): 97* %; % UV A protection ([3]; 12 μg/ml): 98* %; % UV A protection ([4]; 0.25 μg/ml): 14%; % UV A protection ([4]; 0.5 μg/ml): 16%; % UV A protection ([4]; 1 μg/ml): 19%; % UV A protection ([4]; 2 μg/ml): 31* %; % UV A protection ([4]; 3 μg/ml): 42* %; % UV A protection ([4]; 5 μg/ml): 49* %; % UV A protection ([4]; 12 μg/ml): 59* %; UV protection UV A [4]: Significant; No. of folds of Melanin Enhancement compared to control ([5]; 0.25 μg/ml): 1.1 folds; No. of folds of Melanin Enhancement compared to control ([5]; 0.5 μg/ml): 1.25 folds; No. of folds of Melanin Enhancement compared to control ([5]; 1 μg/ml): 1.9* folds; No. of folds of Melanin Enhancement compared to control ([5]; 2 μg/ml): 2.8* folds; No. of folds of Melanin Enhancement compared to control ([5]; 3 μg/ml): 3.2* folds; No. of folds of Melanin Enhancement compared to control ([5]; 5 μg/ml): 3.8* folds; No. of folds of Melanin Enhancement compared to control ([5]; 12 μg/ml): 4.2* folds; melanin enhancement activity, comparison in words [5]: more than active II or active III; dose levels still tolerated and effective, relative to the maximum tolerated dose levels of active III [5]: 2.4 times; Melanin enhancement [5]: Significant
C=C[C@@]1(C)CC(=O)[C@]2(O)[C@@]3(C)[C@@H](O)CCC(C)(C)[C@@H]3[C@H](OC(C)=O)[C@H](O)[C@@]2(C)O1 [Active II, 6β-acetoxy-8,13-epoxy-1α,7β,9α-trihydroxylabd-14-en-11-one] | 10* % | 15* % | 18* % | 23* % | 30* % | 35* % | 40* % | 0% | 0% | 15* % | 25* % | 28* % | 30* % | 35* % | Moderate | 15* % | 25* % | 55* % | 75* % | 98* % | % UV A protection ([3]; 5 μg/ml): 97* %; % UV A protection ([3]; 12 μg/ml): 98* %; % UV A protection ([4]; 0.25 μg/ml): 10%; % UV A protection ([4]; 0.5 μg/ml): 13%; % UV A protection ([4]; 1 μg/ml): 18* %; % UV A protection ([4]; 2 μg/ml): 25* %; % UV A protection ([4]; 3 μg/ml): 35* %; % UV A protection ([4]; 5 μg/ml): 45* %; % UV A protection ([4]; 12 μg/ml): 50* %; UV protection UV A [4]: Moderate; No. of folds of Melanin Enhancement compared to control ([5]; 0.25 μg/ml): 1 folds; No. of folds of Melanin Enhancement compared to control ([5]; 0.5 μg/ml): 1.1 folds; No. of folds of Melanin Enhancement compared to control ([5]; 1 μg/ml): 1.6* folds; No. of folds of Melanin Enhancement compared to control ([5]; 2 μg/ml): 2.3* folds; No. of folds of Melanin Enhancement compared to control ([5]; 3 μg/ml): 3* folds; No. of folds of Melanin Enhancement compared to control ([5]; 5 μg/ml): 3.45* folds; No. of folds of Melanin Enhancement compared to control ([5]; 12 μg/ml): 3.5* folds; dose levels still tolerated and effective, relative to the maximum tolerated dose levels of active III [5]: 2.4 times; Melanin enhancement [5]: Moderate
C=C[C@@]1(C)CC(=O)[C@]2(O)[C@@]3(C)[C@@H](O)CCC(C)(C)[C@@H]3[C@H](O)[C@H](OC(C)=O)[C@@]2(C)O1 [Active III, 7β-acetoxy-8,13-epoxy-1α,6β,9α-trihydroxylabd-14-en-11-one] | 0% | 2% | 4% | 4% | 5% | toxic | toxic | 0% | 2% | 5% | 5% | 5% | toxic | toxic | Nil | 10% | 15* % | 20* % | 26* % | 38* % | % UV A protection ([3]; 5 μg/ml): toxic; % UV A protection ([3]; 12 μg/ml): toxic; % UV A protection ([4]; 0.25 μg/ml): 5%; % UV A protection ([4]; 0.5 μg/ml): 10%; % UV A protection ([4]; 1 μg/ml): 15* %; % UV A protection ([4]; 2 μg/ml): 20* %; % UV A protection ([4]; 3 μg/ml): 29* %; % UV A protection ([4]; 5 μg/ml): toxic; % UV A protection ([4]; 12 μg/ml): toxic; UV protection UV A [4]: Moderate; Cytotoxicity (cells of the skin): Cytotoxic; No. of folds of Melanin Enhancement compared to control ([5]; 0.25 μg/ml): 1 folds; No. of folds of Melanin Enhancement compared to control ([5]; 0.5 μg/ml): 1.1 folds; No. of folds of Melanin Enhancement compared to control ([5]; 1 μg/ml): 1.5* folds; No. of folds of Melanin Enhancement compared to control ([5]; 2 μg/ml): 2* folds; No. of folds of Melanin Enhancement compared to control ([5]; 3 μg/ml): 2.8* folds; No. of folds of Melanin Enhancement compared to control ([5]; 5 μg/ml): toxic; No. of folds of Melanin Enhancement compared to control ([5]; 12 μg/ml): toxic; Melanin enhancement [5]: Moderate
O=C(CCCCc1ccc2c(c1)OCO2)N1CCCCC1 [tetrahydropiperine] | – | – | – | – | – | – | – | – | – | – | – | – | – | – | – | – | – | – | – | – | toxicity to cells ([5]; Example 4): toxic to cells; melanin enhancement activity, comparison in words [5]: does not show significant melanin enhancement activity
